Experimental data from US20160310454A1, “LIVER X RECEPTOR AGONISTS IN THE TREATMENT OF EMPHYSEMA” (priority 2013, published 2016).
Entries after “also recorded” stand apart in the source; their conditions may differ.

Legend:
[1] = test system: mice exposed to cigarette smoke for 10 days; assay: Acute 10 day cigarette smoke exposure model with LXR agonist IP; type: in vivo, mouse
Procedure: Mice were chronically exposed to smoke in a specially designed chamber (Teague Enterprise, CA). 8 weeks old mice were smoke-exposed for 5 hours a day, 5 days a week for 10 days and 5 months. The total particulate matter (TPM) within the smoking chamber was regulated so that the mice receive a TPM of 100 mg/m^3. TPM was determined by a gravimetric analysis of filter samples taken during the exposure period. Mice (C57BL/6, AKR/J strain) were smoke exposed for 10 days and 5 months and compared to room air exposed controls.
The BAL fluid was collected by perfusing the lungs with 2 ml of phosphate buffered saline (PBS). The samples were then centrifuged to pellet down the cells and re-suspended in 300 μl of PBS. To obtain the total cell count, cells were counted using a hematocytometer for which, 10 μl of the sample was utilized. To obtain the differential cell count, the slides were prepared using a cytopsin. 150 μl of sample was taken to prepare slides. These slides were stained using Hematoxylin and Eosin (H&E) and a number of regular and foamy like macrophages and lymphocytes counted under the microscope. A foamy like phenotype (Hirama et al., 2007) was identified by examining the sequential increase in macrophage size. Lipid staining was not performed.
Total RNA was extracted from specimens of lung tissue 0.3 cm^3 in size with the use of the RNeasy kit (Qiagen, Germantown, Md.) (Goldklang et al., 2012). The RNA was then further processed to obtain cDNA, which was used for Real Time (RT) PCR analysis. TaqMan gene expression assays (Applied Biosystems, Carlsbad, Calif.) were performed to assess gene-transcript levels with the use of an ABI Prism 7900HT Sequence Detection System (Applera, Foster City, Calif.) (Goldklang et al., 2012). The following primers were used to check the respective gene expression: ABCA1 (Hs01059118_m1), ABCG1 (Hs00245154_m1), MMP-9 (Mm00442991_m1), IL-1β (Mm00434227_g1), TNF-α (Mm00443260_g1) and GAPDH (4352932E) from TaqMan Gene Expression Assays, Applied Biosystems, CA. β-actin was used as a control since it is a housekeeping gene.
To determine if the mechanisms identified in vitro contributed to changes in smoke induced lung inflammation in vivo, cigarette smoke studies were performed in mice. The treatment of mice exposed to cigarette smoke in an acute 10 day model with 25 mg/kg of intraperitoneal (IP) injections of an LXR agonist daily during the last 4 days of exposure was examined. […] Treatment with the LXR agonist was capable of blocking the already established inflammation and decreased the total inflammatory cell counts (FIG. 15A.). Furthermore, the cigarette smoke induced TNFα protein expression in the BAL was abrogated in mice treated with the LXR agonist (FIG. 15B.). […] Most importantly, cigarette smoke induced MMP-9 expression and activity in the BAL were inhibited by the treatment with the LXR agonist (FIG. 15C-D.), which correlated with inhibition of inflammation and the inflammatory driven increase in TNFα.

[2] = In vivo bioavailability of LXR agonist in lung and serum (LC/MS/MS); parameters: species or system mouse
Procedure: FIG. 23. In vivo bioavailability of LXR agonist (T0901317) in the lung and serum after intraperitoneal (IP) and custom made diet administration. (A.) T0901317 LC/MS/MS Chromatogram showing no difference among standard and samples in the peak shape and retension time. (B.) Table representing levels of the administered drug in serum and lungs of AKR/J mice by IP (2 and 24 hours post drug administration) and in custom made diet (Research Diets Inc, 0.015% w/w). The result was normalized by using serum volume and lung tissue weight. No T0901317 was detected in control serum and lung.

[3] = 25 mg/kg IP, 10 days smoke exposure, Luminex
[4] = 25 mg/kg IP, 10 days smoke exposure, listed as LXR agonist

Structure (SMILES): O=S(=O)(c1ccccc1)N(CC(F)(F)F)c1ccc(C(O)(C(F)(F)F)C(F)(F)F)cc1 [T0901317, N-(2,2,2-trifluoroethyl)-N-[4-[2,2,2-trifluoro-1-hydroxy-1-(trifluoromethyl)ethyl]phenyl]-benzenesulfonamide]
- level of ABCA1 in BAL (alveolar macrophages) ([1]; 25 mg/kg IP daily, last 4 days of 10 day smoke exposure, listed as LXR agonist): re-expression; also recorded: successfully increased
- pulmonary inflammation: total inflammatory cell counts in BAL ([1]; 25 mg/kg IP, 10 days smoke exposure): resolve
- cigarette smoke induced TNFα protein expression in the BAL [1, 3]: abrogated
- smoke induced increase in IL-1β, IL-17, IFNγ and MCP-1 in the lung tissue [1, 3]: inhibited
- cigarette smoke induced MMP-9 expression and activity in the BAL [1, 4]: inhibition; also recorded: inhibited
- mRNA levels of TNFα in BAL alveolar macrophages [1, 4]: inhibition; also recorded: decreased
- pulmonary inflammation: total inflammatory cell counts in BAL [1, 4]: significantly blocked; also recorded: decreased
- drug detected in the lungs ([2]; after IP administration, acute 10 day model): detected
- drug detected in the lungs ([2]; chronic 5 months model (diet 0.015% w/w), text prints after IP administration): detected
